# Measured values reported in patent US20030032674A1, “Use of unsaturated fatty acids to treat severe inflammatory diseases” (priority 2001, published 2003).
# Test system: constitutively active human TLR4 (CD4-TLR4)
# Assay: NFκB reporter in 293T cells transfected with constitutively active TLR4
# Assay type: cell-based
# Source text: Plasmids and DNA Constructs—All plasmids and constructs were obtained or made as reported in either S. H. Rhee and D. Hwang, “Murine TOLL-like receptor 4 confers lipopolysaccaride responsiveness as determined by activation of NFκB and expression of the inducible cyclooxygenase,” Journal of Biological Chemistry, vol. 275, pp. 34035-34040 (2000); and J. Y. Lee et al., “Saturated fatty acids, but not unsaturated fatty acids, induce the expression of cyclooxygenase-2 mediated through TOLL-like receptor 4,” Journal of Biological Chemistry, vol. 276, pp. 16683-16689 (2001). Briefly, the luciferase reporter plasmids (pGL2) containing the promoter region of the murine COX-2 gene (−3201/+93 or −1017/+93) were provided by David Dewitt (Michigan State University, East Lansing, Mich.). To prepare the wild-type COX-2 promoter fragment, polymerase chain reaction (PCR) was performed with the primers named Kpn-COX2-For and Hind-COX2-Rev using the murine COX-2 (−1017/+93) luciferase reporter plasmid as a template. To prepare the mutant COX-2 promoter fragment containing mutated NFκB site, Kpn-COX2-Fmut and Hind-COX2-Rev were used as primers. Each PCR fragment was inserted into the KpnI and HindIII sites of pGL2 to generate the wild-type or mutant COX-2 (−410/+86) luciferase reporter constructs, respectively. Sequences for wild-type NFκB site and the primers were used as reported elsewhere. […]
smiles,measurement,value
CCCCCCCCCCCC(=O)O [lauric acid],effect on CD4-TLR4-induced NFκB activation,potentiated
